From US20190100725A1, “CELL CULTURE MEDIUM AND CULTURE MEDIUM SUPPLEMENT” (Institute of Biophysics, Chinese Academy of Sciences, priority 2016, published 2019)

Columns and labels:
Type in all cases: cell-based, human
[1] = tested on: hiPSC-derived cardiomyocytes; experiment: Whole-cell patch clamp classification of AP types in RA- and BMS493-treated cultures
Description: The dissociation method used has been described previously^9. Briefly, 25-30-day-old differentiated cardiomyocyte clusters were washed with a low Ca^2+ solution, and then incubated in 1 mg/mL collagenase II (Life Technology, 17101-015) dissolved in a low Ca^2+ solution for 30-40 min at 37° C. The isolated cells were suspended in S12 medium containing 10% FBS, transferred to 0.1% gelatin-coated glass coverslips, and then maintained in a 5% CO2 incubator at 37° C.
Action potential (AP) and ion channel activities, which are critical for normal functions of cardiomyocytes, were investigated using whole-cell patch clamp technology on single cardiomyocytes. The classification of nodal-, atrial- and ventricular-like APs was based on the AP properties. Particularly, nodal-like AP has a slower maximal upstroke velocity (dV/dt), smaller action potential amplitude (APA), depolarized maximum diastolic potential (MDP), and faster beating rate than those of atrial- and ventricular-like APs. An AP duration at 90%0, of repolarization (APD90) value of 150 ms was used to classify atrial- and ventricular-like APs, because of the significant plateau phase of ventricular AP^21, 22. […] The parameters of the three AP types recorded were also analyzed (FIG. 3c).

hiPSC line XVF 4 [2] = experiment: Double immunofluorescence staining of MLC2V and CTNT in 60-day-old cultures
Description: Differentiated cultures were digested with 0.25% trypsin-EDTA, and the cells were plated on 0.1% gelatin-coated coverslips for 5 days to allow full attachment. The coverslips were washed with PBS and fixed in 4% paraformaldehyde for 20 min at 4° C. The fixed cells were then permeabilized with 0.1% Triton X-100 for 20 min at 4° C., and blocked with 10% goat serum (ZSGB-BIO, ZLI-9021) for 1 h at room temperature. Then, the cells were incubated overnight at 4° C. with the following primary antibodies: anti-human CTNT (R&D systems, MAB1874), mouse anti-human α-actinin (Sigma-Aldrich, A7811), mouse anti-human MHC (Abcam, ab15), goat anti-human α-SMA (Abcam, ab5694), mouse anti-human MLC2A (Synaptic Systems, 311011) and rabbit anti-human MLC2V (ProteinTech, 10906-1-AP). Goat anti-mouse 488- (ZSGB-BIO, ZF-0512) or 594-conjugated secondary antibody (ZSGB-BIO, ZF-0513), and goat anti-rabbit 488- (ZSGB-BIO, ZF-0511) or 594-conjugated secondary antibody (ZSGB-BIO, ZF-0516) were used as secondary antibodies. Nuclei were counterstained with 4′,6-diamidino-2-phenylindole (DAPI) (Sigma-Aldrich, D0542). Immunofluorescence images were visualized and recorded using an Olympus microscope system X51 or Olympus LSCM FV1000 (Olympus).

hiPSC lines = experiment: Cardiac differentiation of hiPSC lines in S12 medium, FACS of CTNT-positive cells; conditions: for percentage of CTNT-positive cells after glucose deprivation enrichment: 2 days of glucose deprivation (glucose replaced with DL-lactate); for percentage of CTNT-positive cells before glucose deprivation enrichment: hiPSC line XVF 4 in S12 medium, 1 μM, days 5-8
Description: (§1) For small molecule-induced cardiac differentiation, hESC line H7 or hiPSCs were digested with Versene solution into single cells and seeded on VTN-NC-coated, 24-well plates at a density of 2.5-3.0×10^5 cells/well. Y27632 (10 μM) was supplemented on the first day and withdrawn thereafter. Cultures were maintained in E8 medium for 2-3 days until they reached 90% confluence. To initiate cell differentiation (designated as day 0), the medium was changed to S12 medium without insulin. Cells were treated with 4-8 μM CHIR99021 (Tocris, 4423) for 1 day. Then, the medium was replaced with fresh medium without CHIR99021. At day 3, 5 μM IWR-1 (Sigma-Aldrich, 10161) was supplied with fresh medium for 2 days. From day 5, insulin-containing S12 medium was used. Thereafter, the medium was changed every other day (FIG. 1a).
(§2) For directed differentiation of atrial or ventricular myocytes, 1 μM RA (Sigma-Aldrich, R2625) or 1 μM BMS493 (Tocris, 3509) was added to the differentiating cultures during days 5-8 of differentiation as described previously^9.
(§3) Cardiomyocytes were digested into single cells with 0.25% trypsin-EDTA (Life Technology, 25200-072) at 37° C. for about 5 min, and washed with buffer B, which contains 0.5% bovine serum albumin (Sigma, A9418-50G) in phosphate-buffered saline (PBS). Then the cells were fixed with 4% paraformaldehyde at room temperature and washed with buffer A, which contains 0.5% bovine serum albumin and 0.1% saponin (Sigma-Aldrich, S7900) in PBS. The cells were then incubated with an anti-human CTNT primary antibody (R&D systems, MAB1874) for 40 min at 4° C. and washed with buffer A, followed by incubation with a goat anti-mouse FITC-conjugated secondary antibody (ZSGB-BIO, ZF-0312) for 40 min at 4° C. Data were collected on FACScalibur (Becton Dickinson) and analyzed with FlowJo software (Treestar).

hiPSC line XVF 4 [3] = experiment: QPCR of IRX4 and NR2F2 in RA- or BMS493-treated hiPSC cultures; conditions: 14-day-old cultures; BMS493-treated versus RA-treated
Description: as §2
Total RNA was isolated using RNeasy Plus Mini kit (Qiagen, 74134). One microgram of total RNA was reverse transcribed using the PrimeScript™ RT reagent kit with gDNA eraser (Takara, RR047A). RT-PCR was performed with 2×Taq Mix (CW-BIO, CW0682C) according to the manufacturer's instructions. PCR products were analyzed using 1.5% agarose gel electrophoresis. QPCR was performed in triplicate using the 2×QuantiFast SYBR Green I PCR Master Mix (Qiagen, 204057) on a Rotor Gene 6200 Real-Time PCR Machine (Corbett) with an annealing temperature of 60° C. The expression of each gene was normalized to GAPDH gene expression. The primer sequences are listed in Table 4 (primer sequences for RT-PCR) and Table 5 (primer sequences for QPCR).

[4] = tested on: hPSC-derived ventricular-like cardiomyocytes; experiment: Perforated whole-cell patch clamp, evoked AP of ventricular-like cardiomyocytes paced at 1 Hz; conditions: for APA / APD50 / APD90 / MDP / dV/dT: evoked AP, 1 Hz, percentage of untreated cardiomyocytes, mean±SEM
Description: Perforated whole-cell recording was used for pharmacological tests.
Nifedipine (Sigma-Aldrich, N7634) was prepared in DMSO. […] Other chemicals were from Sigma-Aldrich.

hESC line H7 = experiment: Cardiac differentiation of hESC line H7, FACS of CTNT-positive cells and cardiomyocyte yield; conditions: for cardiac differentiation efficacy (in words): individual addition of the antioxidant to S12 basal medium
Description: as §1, §3

CC1(C)CC=C(C#Cc2ccccc2)c2cc(/C=C/c3ccc(C(=O)O)cc3)ccc21 [BMS493]
percentage of recorded APs that were ventricular-like [1]: 93.3%
MLC2V expression in cardiomyocytes (hiPSC line XVF 4 [2]): widely expressed
percentage of CTNT-positive cells after glucose deprivation enrichment (hiPSC lines): 94.3%
percentage of CTNT-positive cells before glucose deprivation enrichment (hiPSC lines): 86.3%
expression level of ventricular-specific gene IRX4 (hiPSC line XVF 4 [3]): significantly higher

Cc1cccc(CCN2CCC(C(=O)c3ccc(NS(C)(=O)=O)cc3)CC2)n1 [E-4031]
APA ([4]; 1 nM): 102.9 ± 1.1%
APD50 ([4]; 1 nM): 103.8 ± 3.8%
APD90 ([4]; 1 nM): 102.1 ± 3.1%
MDP ([4]; 1 nM): 101.9 ± 1.2%
dV/dT ([4]; 1 nM): 101.2 ± 8.0%
effects on the AP ([4]; 10 nM, 1 Hz stimulation): minor effects
APA ([4]; 10 nM): 103.8 ± 1.5%
APD50 ([4]; 10 nM): 110.1 ± 5.4%
APD90 ([4]; 10 nM): 112.1 ± 5.0%
MDP ([4]; 10 nM): 101.5 ± 1.7%
dV/dT ([4]; 10 nM): 112.4 ± 5.5%
APA ([4]; 100 nM): 103.0 ± 2.3%
APD50 ([4]; 100 nM): 144.0 ± 6.7 %
APD90 ([4]; 100 nM): 169.6±13.4%
MDP ([4]; 100 nM): 99.6 ± 2.9%
dV/dT ([4]; 100 nM): 111.4 ± 9.6%
APA ([4]; 1000 nM): 95.6 ± 4.0%
APD50 ([4]; 1000 nM): 151.1 ± 7.5 %
APD90 ([4]; 1000 nM): 195.6±12.3%
MDP ([4]; 1000 nM): 92.4 ± 2.8%
dV/dT ([4]; 1000 nM): 95.6 ± 7.4%
AP duration ([4]; 1 Hz stimulation (0.1-0.3 nA), dose dependence): prolonged the AP duration in a dose-dependent manner
change in APA and dV/dt ([4]; 1 Hz stimulation, up to 1000 nM): no significant change

CC(C)NCC(O)c1ccc(O)c(O)c1 (stereo not drawn) [Isoproterenol]
APA ([4]; 1 nM): 99.9 ± 1.7%
APD50 ([4]; 1 nM): 99.1 ± 0.7%
APD90 ([4]; 1 nM): 97.3 ± 1.7%
MDP ([4]; 1 nM): 101.2 ± 1.5%
dV/dT ([4]; 1 nM): 99.9 ± 3.0%
APA ([4]; 10 nM): 101.7 ± 1.6%
APD50 ([4]; 10 nM): 93.0 ± 1.6%
APD90 ([4]; 10 nM): 92.0 ± 2.5%
MDP ([4]; 10 nM): 102.8 ± 2.3%
dV/dT ([4]; 10 nM): 108.1 ± 1.8%
APA ([4]; 100 nM): 102.1 ± 2.5%
APD50 ([4]; 100 nM): 90.7 ± 1.8%
APD90 ([4]; 100 nM): 90.8 ± 1.8%
MDP ([4]; 100 nM): 104.8 ± 3.7%
dV/dT ([4]; 100 nM): 105.6 ± 2.5%
APA ([4]; 1000 nM): 99.0 ± 5.2%
APD50 ([4]; 1000 nM): 87.0 ± 1.6 %
APD90 ([4]; 1000 nM): 87.3 ± 1.6 %
MDP ([4]; 1000 nM): 101.8 ± 5.0%
dV/dT ([4]; 1000 nM): 105.3 ± 3.1%
APD90 (in words) ([4]; 1 Hz stimulation): minor reduction
effects on the parameters of AP ([4]; 1 Hz stimulation, except APD90): no significant effects

O=C1O[C@H]([C@@H](O)CO)C(O)=C1O [L-ascorbic acid]
cardiac differentiation efficacy (in words) (hESC line H7): marginally improved

CC(=O)N[C@@H](CS)C(=O)O [N-acetyl-L-cysteine]
cardiac differentiation efficacy (in words) (hESC line H7): marginally improved

COC(=O)C1=C(C)NC(C)=C(C(=O)OC)C1c1ccccc1[N+](=O)[O-] [Nifedipine]
APA ([4]; 1 nM): 96.7 ± 2.7%
APD50 ([4]; 1 nM): 92.7 ± 2.1%
APD90 ([4]; 1 nM): 94.6 ± 2.0%
MDP ([4]; 1 nM): 99.7 ± 2.7%
dV/dT ([4]; 1 nM): 90.6 ± 4.1%
APA ([4]; 10 nM): 96.2 ± 0.7%
APD50 ([4]; 10 nM): 70.1 ± 2.9 %
APD90 ([4]; 10 nM): 73.6±2.7%
MDP ([4]; 10 nM): 103.5 ± 1.1%
dV/dT ([4]; 10 nM): 96.4 ± 5.9%
APA ([4]; 100 nM): 88.3 ± 2.4%
APD50 ([4]; 100 nM): 55.3 ± 4.3 %
APD90 ([4]; 100 nM): 60.8±4.3%
MDP ([4]; 100 nM): 100.8 ± 2.9%
dV/dT ([4]; 100 nM): 86.1 ± 8.8%
APA ([4]; 1000 nM): 73.8 ± 4.4 %
APD50 ([4]; 1000 nM): 36.0 ± 3.3 %
APD90 ([4]; 1000 nM): 47.1±6.1%
MDP ([4]; 1000 nM): 100.8 ± 3.1%
dV/dT ([4]; 1000 nM): 60.0 ± 11.3 %

CC1=C(/C=C/C(C)=C/C=C/C(C)=C/C(=O)O)C(C)(C)CCC1 [RA, retinoic acid]
percentage of recorded APs that were atrial-like ([1]; 30-day-old cardiomyocytes, n=31): 90.3%
percentage of CTNT-positive cells after glucose deprivation enrichment (hiPSC lines): 95.7%
percentage of CTNT-positive cells before glucose deprivation enrichment (hiPSC lines): 85%

CC(=O)C(=O)[O-].[Na+] [sodium pyruvate]
cardiac differentiation efficacy (in words) (hESC line H7): marginally improved

Cc1c(C)c2c(c(C)c1O)CCC(C)(C(=O)O)O2 (stereo not drawn) [trolox]
cardiac differentiation (FACS for CTNT positive cells) (hESC line H7; added to B27-based medium with six compounds removed, VTN-NC first three days): efficiently supported cardiac differentiation
cardiac differentiation efficacy (in words) (hESC line H7): marginally improved
